ChEMBL document CHEMBL3044830, “Synthesis, characterization, antibacterial, antifungal, and immunomodulating activities of gatifloxacin derivatives” (Med Chem Res, 2010)

How the values were obtained:
Proteus mirabilis [1] = assay: Antibacterial activity against Proteus mirabilis assessed as concentration required to obtain a zone of inhibition of 10 mm after 18 to 24 hr by disc diffusion method; type: functional
Proteus mirabilis [2] = assay: Antibacterial activity against Proteus mirabilis assessed as concentration required to obtain a zone of inhibition of 5 mm after 18 to 24 hr by disc diffusion method; type: functional
Klebsiella pneumoniae = assay: Antibacterial activity against Klebsiella pneumoniae assessed as concentration required to obtain a zone of inhibition of 20 mm after 18 to 24 hr by disk diffusion method; type: functional
Shigella flexneri [3] = assay: Antibacterial activity against Shigella flexneri assessed as concentration required to obtain a zone of inhibition of 5 mm after 18 to 24 hr by disk diffusion method; type: functional
Escherichia coli [4] = assay: Antibacterial activity against Escherichia coli assessed as concentration required to obtain a zone of inhibition of 20 mm after 18 to 24 hr by disk diffusion method; type: functional
Escherichia coli [5] = assay: Antibacterial activity against Escherichia coli assessed as concentration required to obtain a zone of inhibition of 10 mm after 18 to 24 hr by disk diffusion method; type: functional
Shigella flexneri [6] = assay: Antibacterial activity against Shigella flexneri assessed as zone of inhibition at 5 to 40 ug/ml after 18 to 24 hr by disk diffusion method relative to gatifloxacin; type: functional
Staphylococcus aureus [7] = assay: Antibacterial activity against methicillin-resistant Staphylococcus aureus assessed as zone of inhibition at 5 to 40 ug/ml after 18 to 24 hr by disk diffusion method relative to gatifloxacin; type: functional
Escherichia coli [8] = assay: Antibacterial activity against Escherichia coli assessed as concentration required to obtain a zone of inhibition of 5 mm after 18 to 24 hr by disk diffusion method; type: functional
Staphylococcus aureus [9] = assay: Antibacterial activity against methicillin-resistant Staphylococcus aureus assessed as concentration required to obtain a zone of inhibition of 5 mm after 18 to 24 hr by disk diffusion method; type: functional
Bacillus subtilis [10] = assay: Antibacterial activity against Bacillus subtilis assessed as zone of inhibition at 5 to 40 ug/ml after 18 to 24 hr by disk diffusion method relative to gatifloxacin; type: functional
Bacillus subtilis [11] = assay: Antibacterial activity against Bacillus subtilis assessed as concentration required to obtain a zone of inhibition of 20 mm after 18 to 24 hr by disk diffusion method; type: functional
Bacillus subtilis [12] = assay: Antibacterial activity against Bacillus subtilis assessed as concentration required to obtain a zone of inhibition of 10 mm after 18 to 24 hr by disk diffusion method; type: functional
Pseudomonas aeruginosa [13] = assay: Antibacterial activity against Pseudomonas aeruginosa assessed as concentration required to obtain a zone of inhibition of 20 mm after 18 to 24 hr by disk diffusion method; type: functional
Pseudomonas aeruginosa [14] = assay: Antibacterial activity against Pseudomonas aeruginosa assessed as concentration required to obtain a zone of inhibition of 10 mm after 18 to 24 hr by disk diffusion method; type: functional
Citrobacter [15] = assay: Antibacterial activity against Citrobacter assessed as zone of inhibition at 5 to 40 ug/ml after 18 to 24 hr by disk diffusion method relative to gatifloxacin; type: functional
Citrobacter [16] = assay: Antibacterial activity against Citrobacter assessed as concentration required to obtain a zone of inhibition of 20 mm after 18 to 24 hr by disk diffusion method; type: functional
Citrobacter [17] = assay: Antibacterial activity against Citrobacter assessed as concentration required to obtain a zone of inhibition of 10 mm after 18 to 24 hr by disk diffusion method; type: functional
Citrobacter [18] = assay: Antibacterial activity against Citrobacter assessed as concentration required to obtain a zone of inhibition of 5 mm after 18 to 24 hr by disk diffusion method; type: functional
Shigella sp. = assay: Antibacterial activity against Shigella typhi assessed as concentration required to obtain a zone of inhibition of 5 mm after 18 to 24 hr by disc diffusion method; type: functional
T-cell [19] = assay: Anti-inflammatory activity in Homo sapiens (human) T lymphocytes assessed as inhibition of PHA-induced [3H] thymidine uptake incubated for 72 hr prior to [3H]thymidine addition measured after 18 hr by liquid scintillation method; type: functional, cell-based
T-cell [20] = assay: Anti-inflammatory activity in Homo sapiens (human) T lymphocytes assessed as inhibition of PHA-induced [3H] thymidine uptake at 3.12 ug/ml incubated for 72 hr prior to [3H]thymidine addition measured after 18 hr by liquid scintillation method; type: functional
T-cell [21] = assay: Anti-inflammatory activity in Homo sapiens (human) T lymphocytes assessed as inhibition of PHA-induced [3H] thymidine uptake at 12.5 ug/ml incubated for 72 hr prior to [3H]thymidine addition measured after 18 hr by liquid scintillation method; type: functional
T-cell [22] = assay: Anti-inflammatory activity in Homo sapiens (human) T lymphocytes assessed as inhibition of PHA-induced [3H] thymidine uptake at 50 ug/ml incubated for 72 hr prior to [3H]thymidine addition measured after 18 hr by liquid scintillation method; type: functional
Blood [23] = assay: Antioxidant activity in Homo sapiens (human) whole blood assessed as inhibition of ROS production after 30 min by luminol-enhanced chemiluminescence assay; type: functional, tissue-based; settings: 0.5 h
Blood [24] = assay: Antioxidant activity in Homo sapiens (human) whole blood assessed as inhibition of ROS production at 12.5 ug/ml after 30 min by luminol-enhanced chemiluminescence assay; type: functional; settings: 0.5 h
Blood [25] = assay: Antioxidant activity in Homo sapiens (human) whole blood assessed as inhibition of ROS production at 50 ug/ml after 30 min by luminol-enhanced chemiluminescence assay; type: functional; settings: 0.5 h
Blood [26] = assay: Antioxidant activity in Homo sapiens (human) whole blood assessed as inhibition of ROS production at 100 ug/ml after 30 min by luminol-enhanced chemiluminescence assay; type: functional; settings: 0.5 h
Fusarium solani [27] = assay: Antifungal activity against Fusarium solani assessed as zone of inhibition at 5 to 40 ug/ml after 7 days by disk diffusion method relative to gatifloxacin; type: functional
Fusarium solani [28] = assay: Antifungal activity against Fusarium solani assessed as concentration required to obtain a zone of inhibition of 20 mm after 7 days by disk diffusion method; type: functional
Candida albicans [29] = assay: Antifungal activity against Candida albicans assessed as zone of inhibition at 5 to 40 ug/ml after 7 days by disk diffusion method relative to gatifloxacin; type: functional
Candida albicans [30] = assay: Antifungal activity against Candida albicans assessed as concentration required to obtain a zone of inhibition of 20 mm after 7 days by disk diffusion method; type: functional
[31] = Antibacterial activity against Hofmanni bacterium assessed as zone of inhibition after 18 to 24 hr by disc diffusion method relative to gatifloxacin
[32] = Antibacterial activity against Hofmanni bacterium assessed as concentration required to obtain a zone of inhibition of 5 mm after 18 to 24 hr by disc diffusion method
[33] = Antibacterial activity against Hofmanni bacterium assessed as concentration required to obtain a zone of inhibition of 20 mm after 18 to 24 hr by disc diffusion method
[34] = Antibacterial activity against Hofmanni bacterium assessed as concentration required to obtain a zone of inhibition of 10 mm after 18 to 24 hr by disc diffusion method

| SMILES | Activity (Proteus mirabilis [1]) | Activity (Proteus mirabilis [2]) | Activity (Klebsiella pneumoniae) | Activity (Shigella flexneri [3]) | Activity (Escherichia coli [4]) | Activity (Escherichia coli [5]) | inhibition zone (IZ) (Shigella flexneri [6]) | inhibition zone (IZ) (Staphylococcus aureus [7]) | Activity (Escherichia coli [8]) | Activity (Staphylococcus aureus [9]) | inhibition zone (IZ) (Bacillus subtilis [10]) | Activity (Bacillus subtilis [11]) | Activity (Bacillus subtilis [12]) | Activity (Pseudomonas aeruginosa [13]) | Activity (Pseudomonas aeruginosa [14]) | inhibition zone (IZ) (Citrobacter [15]) | Activity (Citrobacter [16]) | Activity (Citrobacter [17]) | Activity (Citrobacter [18]) | Activity (Shigella sp.) | further results |
| --- | --- | --- | --- | --- | --- | --- | --- | --- | --- | --- | --- | --- | --- | --- | --- | --- | --- | --- | --- | --- | --- |
| COc1c(N2CCN(C(=O)c3ccccc3)C(C)C2)c(F)cc2c(=O)c(C(=O)O)cn(C3CC3)c12.O (stereo not drawn) | 11 µg/mL | 9 µg/mL | 21 µg/mL | 11 µg/mL | 19 µg/mL | 16 µg/mL | 88.1% | 87.4% | 8 µg/mL | 9 µg/mL | 104% | 18 µg/mL | 15 µg/mL | 18 µg/mL | 12 µg/mL | 47.6% | 12 µg/mL | 10 µg/mL | 8 µg/mL | 8 µg/mL | IC50 (T-cell [19]): > 50 µg/mL; inhibition at 3.12 µg/mL (T-cell [20]): -59.5%; inhibition at 12.5 µg/mL (T-cell [21]): -41.5%; inhibition at 50 µg/mL (T-cell [22]): -6.9%; IC50 (Blood [23]): > 100 µg/mL; inhibition at 12.5 µg/mL (Blood [24]): -5.1%; inhibition at 50 µg/mL (Blood [25]): 11.1%; inhibition at 100 µg/mL (Blood [26]): 15%; inhibition zone (IZ) (Fusarium solani [27]): 120%; Activity (Fusarium solani [28]): 17 µg/mL; inhibition zone (IZ) (Candida albicans [29]): 141%; Activity (Candida albicans [30]): 10 µg/mL; inhibition zone (IZ) [31]: 86%; Activity [32]: 6 µg/mL; Activity [33]: 14 µg/mL; Activity [34]: 12 µg/mL |
| CCCCCCCC(=O)N1CCN(c2c(F)cc3c(=O)c(C(=O)O)cn(C4CC4)c3c2OC)CC1C.O (stereo not drawn) | 12 µg/mL | 11 µg/mL | 18 µg/mL | 12 µg/mL | 14 µg/mL | 10 µg/mL | 105% | 76.7% | 8 µg/mL | 7 µg/mL | 80.2% | 13 µg/mL | 11 µg/mL | 11 µg/mL | 10 µg/mL | 51.5% | 15 µg/mL | 10 µg/mL | 8 µg/mL | 8 µg/mL | IC50 (T-cell [19]): > 50 µg/mL; inhibition at 3.12 µg/mL (T-cell [20]): -59.5%; inhibition at 12.5 µg/mL (T-cell [21]): -41.5%; inhibition at 50 µg/mL (T-cell [22]): -6.9%; IC50 (Blood [23]): < 12.5 µg/mL; inhibition at 12.5 µg/mL (Blood [24]): 74.1%; inhibition at 50 µg/mL (Blood [25]): 89.2%; inhibition at 100 µg/mL (Blood [26]): 96.1%; inhibition zone (IZ) (Fusarium solani [27]): 110%; Activity (Fusarium solani [28]): 14 µg/mL; inhibition zone (IZ) (Candida albicans [29]): 218%; Activity (Candida albicans [30]): 16 µg/mL; inhibition zone (IZ) [31]: 88%; Activity [32]: 7 µg/mL; Activity [33]: 14 µg/mL; Activity [34]: 11 µg/mL |
| COc1c(N2CCN(C(C)=O)C(C)C2)c(F)cc2c(=O)c(C(=O)O)cn(C3CC3)c12.O (stereo not drawn) | 10 µg/mL | 9 µg/mL | 25 µg/mL | 19 µg/mL | 22 µg/mL | 17 µg/mL | 151% | 124% | 10 µg/mL | 14 µg/mL | 100% | 17 µg/mL | 15 µg/mL | 24 µg/mL | 17 µg/mL | 98.9% | 24 µg/mL | 21 µg/mL | 17 µg/mL | 9 µg/mL | IC50 (T-cell [19]): > 50 µg/mL; inhibition at 3.12 µg/mL (T-cell [20]): -23.4%; inhibition at 12.5 µg/mL (T-cell [21]): -35.7%; inhibition at 50 µg/mL (T-cell [22]): -52.3%; IC50 (Blood [23]): > 100 µg/mL; inhibition at 12.5 µg/mL (Blood [24]): -14.3%; inhibition at 50 µg/mL (Blood [25]): -17.4%; inhibition at 100 µg/mL (Blood [26]): -15.1%; inhibition zone (IZ) (Fusarium solani [27]): 93.3%; Activity (Fusarium solani [28]): 13 µg/mL; inhibition zone (IZ) (Candida albicans [29]): 206%; Activity (Candida albicans [30]): 16 µg/mL; inhibition zone (IZ) [31]: 99%; Activity [32]: 8 µg/mL; Activity [33]: 16 µg/mL; Activity [34]: 12 µg/mL |
